Measurements: patent publication US11110070B2 (priority 2015, dated 2021)
Entries after “also recorded” stand apart in the source; their conditions may differ.

What was measured:
[1] = tested on: 129S6/SvEvTac mice; assay: Social interaction with a novel mouse after SD; type: in vivo; settings: ketamine 30 mg kg^−1 before SD
Procedure: Mice were placed into a large open field containing 2 upside-down wire mesh pencil cups. One pencil cup served as a novel object or empty container. The other pencil cup contained a novel 129S6/SvEv male mouse. Mice were placed in the middle of the open field arena and allowed to explore for 10 min. Sessions were videotaped and the first 5 min were later analyzed using behavioral tracking software (TopScan, CleverSys, Reston, Va.).

[2] = tested on: 129S6/SvEvTac mice; assay: FST after reinstatement; type: in vivo
Procedure: The FST was administered as previously described (Richardson-Jones et al., 2010; Brachman et al., 2016).

[3] = tested on: 129S6/SvEvTac mice; assay: Learned helplessness (LH) shock escape; type: in vivo; settings: ketamine 30 mg kg^−1 1 week before LH training, vs saline
Procedure: Experiment 4 (Pre-ketamine in learned helplessness (LH)); At 8 weeks of age, a single injection of saline or ketamine (30 mg kg^−1) was administered. One week following this injection, LH training (inescapable shock) was administered. Two weeks later, mice were administered LH testing (shock escape).
The LH paradigm was used to induce depressive-like behavior (A4). In this paradigm, mice are exposed to unpredictable and uncontrollable stress (shocks) and then develop coping deficits to deal with the inescapable shocks. We modified a previously published paradigm (A5). Briefly, the procedure was conducted in a two-chamber shuttle box (model ENV 010MD; Med Associates, St. Albans, Vt.) located within a sound-attenuated cubicle. The grid floor was made of stainless steel and connected to a shock generator. The scrambled shock generator (model ENV 414S, Med Associates) created varying electrical potential differences between bars preventing an animal from avoiding shock.
Inescapable shock (training): At approximately 9 weeks of age, mice were trained in the LH paradigm. For each shuttle box, 2 animals were administered the protocol at the same time: the central door was closed, with one animal in the chamber on each side. After a 3 min habituation period, the shock deliveries began. […]

[4] = tested on: 129S6/SvEvTac mice; assay: Elevated plus maze (EPM) in SD experiments; type: in vivo; settings: ketamine 30 mg kg^−1 before SD; Ctrl and SD groups
Procedure: Testing was performed as previously described (A14). Briefly, the maze is a plus-cross-shaped apparatus consisting of four arms, two open and two enclosed by walls, linked by a central platform at a height of 50 cm from the floor. Mice were individually placed in the center of the maze facing an open arm and were allowed to explore the maze for 5 min. The time spent in and the number of entries into the open arms was used as an anxiety index. For the 12956/SvEv experiments, videos were scored using behavioral tracking software (TopScan, CleverSys, Reston, Va.). For the C57BL/6Ntac experiments, all parameters were measured using a videotracker (EPM3C. Bioseb, Vitrolles, France).

[5] = tested on: patients with MDD; settings: cited from earlier work
[6] = tested on: 129S6/SvEvTac mice; assay: Dominant interaction test after SD; type: in vivo
Procedure: Adult aggressor CD-1 male mice were single-housed in Macrolon® polycarbonate resin cages (15.25 in×7.8 in×9.5 in) (Animal Care Systems, Inc., Centennial, Colo.). Male 129S6/SvEvTac mice (9 weeks of age) were subsequently placed into the resident. CD-1 mouse's cage. Three antagonistic encounters were allowed between the CD-1 mouse and the intruder. Each of these encounters typically lasted less than 5 min. Following the encounters, mice were separated by a polished stainless steel cage divider (Animal Care Systems, Inc., Centennial, Colo., P/N C79171), which allowed for olfactory and auditory communication, but limited visual or tactile contact. The partition was removed daily for 2 weeks and 3 antagonistic encounters were allowed between the mice each day. This procedure consistently yielded a submissive phenotype in the experimental intruder mice. Control (Ctrl) mice were group housed 4 to 5 per cage in Macrolon® polycarbonate resin cages without dividers.
Dominant interaction was performed as previously described (A12). Briefly, mice were placed into a large open field containing 2 upside-down wire mesh pencil cups. One pencil cup served as a novel object or empty container. The other pencil cup contained the CD-1 aggressor mouse. Mice were placed in the middle of the open field arena and allowed to explore for 10 min. Sessions were videotaped and the first 5 min were later analyzed using behavioral tracking software (TopScan, CleverSys, Reston, Va.).

[7] = SD mice, ketamine 30 mg kg^−1 before SD, vs SD-Sal

## CNC1(c2ccccc2Cl)CCCCC1=O (racemic) [ketamine, (RS)-2-(2-chlorophenyl)-2-(methylamino)cyclohexanone]
[1]
  social interaction with a novel mouse: did not find an effect
[2]; ketamine 1 week prior to 1-shock reinstatement
  time immobile in the FST: equal levels of immobility
[2]; ketamine 1 week prior to 3-shock reinstatement
  time immobile in the FST: equal levels of immobility in the FST
[3]; testing 2 weeks later
  latency to escape the shock: decreased latency to escape the shock; also recorded: significantly less
[3]
  session length (all 30 trials): significantly shorter; also recorded: significantly less
[4]
  time in the closed arms of EPM: no significant effect of ketamine in either group
[5]; in vivo
  duration of sustained effects following the infusion: 1-2 weeks
[5]; patients with MDD
  time to antidepressant effects following a single injection: 2 h
[6]; Ctrl mice, ketamine 30 mg kg^−1 vs saline
  time investigating the empty enclosure quadrant: equivalent amount of time investigating the empty enclosure quadrant
[6]; [7]
  interaction with the CD-1 aggressor mouse: significantly increased willingness to interact with the CD-1; also recorded: considerably more time investigating a CD-1 mouse
  time investigating the empty enclosure quadrant: significantly less time investigating the empty enclosure quadrant
